What follows are compounds tested against T1, human vasopressin V1b receptor (Homo sapiens, UniProt P47901) (assay: Vasopressin V1b receptor binding test). Settings: membranes of CHO-K1 cells with human V1b receptor, displacement of 1.5 nM 3H-AVP; for compounds with more than one stereogenic center the diastereomer with greater affinity.
T1 construct: expressed in transfected cells; host or cells: CHO-K1 (cell line hV1b_3H2_CHO), membrane preparation
T1 sequence (P47901 1-424): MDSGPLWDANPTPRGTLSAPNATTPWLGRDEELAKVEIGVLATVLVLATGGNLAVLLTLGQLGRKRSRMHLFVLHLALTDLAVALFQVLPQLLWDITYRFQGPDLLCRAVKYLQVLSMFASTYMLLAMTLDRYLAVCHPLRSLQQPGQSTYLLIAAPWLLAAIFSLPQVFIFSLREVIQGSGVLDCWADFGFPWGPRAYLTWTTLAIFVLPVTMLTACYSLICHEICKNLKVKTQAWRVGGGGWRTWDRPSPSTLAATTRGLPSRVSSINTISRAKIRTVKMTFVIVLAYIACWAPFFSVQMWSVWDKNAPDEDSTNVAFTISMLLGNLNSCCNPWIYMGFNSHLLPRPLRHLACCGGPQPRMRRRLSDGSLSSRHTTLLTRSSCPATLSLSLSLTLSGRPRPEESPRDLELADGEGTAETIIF
Outline: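 Affinity constants (Ki) came from nonlinear regression of triplicate scintillation counts after filtration separated bound from free radioligand. Compounds competed at human V1b membranes for 60 min, room temperature, in pH 7.4 tris/MgCl2/BSA buffer with 2% DMSO; 1 μM AVP defined nonspecific binding.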

**Q.** How did the Ki turn out when `CNCc1ccc(OC)c(C2(N3C[C@H](O)C[C@H]3c3ncco3)C(=O)N(S(=O)(=O)c3ccc(OC)cc3)c3ccc(C#N)cc32)c1` (stereo partly drawn) [Example 163, 5-Cyano-3-((2S,4R)-4-hydroxy-2-oxazol-2-yl-pyrrolidin-1-yl)-1-(4-methoxybenzenesulfonyl)-3-(2-methoxy-5-methylaminomethylphenyl)-1,3-dihydroindol-2-one] was run?
**A.** < 10 nM

**Q.** With `COc1ccc(S(=O)(=O)N2C(=O)C(c3cc(CN4CCN(C)CC4)cnc3OC)(N3CCC[C@H]3c3ncco3)c3cc(Cl)ccc32)cc1` (stereo partly drawn) [Example 164, 5-Chloro-1-(4-methoxybenzenesulfonyl)-3-[2-methoxy-5-(4-methylpiperazin-1-ylmethyl)pyridin-3-yl]-3-((S)-2-oxazol-2-yl-pyrrolidin-1-yl)-1,3-dihydroindol-2-one] as the compound, how does the Ki read?
**A.** < 10 nM

**Q.** With `COc1ccc(S(=O)(=O)N2C(=O)C(c3ccc(CN4CCN(C)CC4)cc3OC)(N3C[C@H](O)C[C@H]3c3ncco3)c3cc(Cl)ccc32)cc1` (stereo partly drawn) [Example 165, 5-Chloro-3-((2S,4R)-4-hydroxy-2-oxazol-2-yl-pyrrolidin-1-yl)-1-(4-methoxybenzenesulfonyl)-3-[2-methoxy-4-(4-methylpiperazin-1-ylmethyl)phenyl]-1,3-dihydroindol-2-one] as the compound, how does the Ki read?
**A.** < 10 nM

**Q.** How did the Ki turn out when `COc1ccc(S(=O)(=O)N2C(=O)C(c3ccc(CN4CCN(C(C)C)CC4)cc3OC)(N3C[C@H](O)C[C@H]3c3ncco3)c3cc(Cl)ccc32)cc1` (stereo partly drawn) [Example 166, 5-Chloro-3-((2S,4R)-4-hydroxy-2-oxazol-2-yl-pyrrolidin-1-yl)-3-[4-(4-isopropylpiperazin-1-ylmethyl)-2-methoxyphenyl]-1-(4-methoxybenzenesulfonyl)-1,3-dihydroindol-2-one] was run?
**A.** < 10 nM

**Q.** How did the Ki turn out when `CNCc1cnc(OC)c(C2(N3CCC[C@H]3c3ncco3)C(=O)N(S(=O)(=O)c3ccc(OC)cc3)c3ccc(Cl)cc32)c1` (stereo partly drawn) [Example 167, 5-Chloro-1-(4-methoxybenzenesulfonyl)-3-(2-methoxy-5-methylaminomethylpyridin-3-yl)-3-((S)-2-oxazol-2-yl-pyrrolidin-1-yl)-1,3-dihydroindol-2-one] was run?
**A.** < 10 nM

**Q.** `COc1ccc(S(=O)(=O)N2C(=O)C(c3cc(CNC4CC4)ccc3OC)(N3CCC[C@H]3c3ncco3)c3cc(Cl)ccc32)cc1` (stereo partly drawn) [Example 168, 5-Chloro-3-(5-cyclopropylaminomethyl-2-methoxyphenyl)-1-(4-methoxybenzenesulfonyl)-3-((S)-2-oxazol-2-yl-pyrrolidin-1-yl)-1,3-dihydroindol-2-one] was tested. Which Ki did it give?
**A.** < 10 nM

**Q.** With `COc1ccc(S(=O)(=O)N2C(=O)C(c3ccc(CN4CCCCC4)cc3OC)(N3C[C@H](O)C[C@H]3c3ncco3)c3cc(Cl)ccc32)cc1` (stereo partly drawn) [Example 169, 5-Chloro-3-((2S,4R)-4-hydroxy-2-oxazol-2-yl-pyrrolidin-1-yl)-1-(4-methoxybenzenesulfonyl)-3-(2-methoxy-4-piperidin-1-ylmethylphenyl)-1,3-dihydroindol-2-one] as the compound, how does the Ki read?
**A.** < 10 nM

**Q.** How did the Ki turn out when `CCN(C)Cc1ccc(C2(N3C[C@H](O)C[C@H]3c3ncco3)C(=O)N(S(=O)(=O)c3ccc(OC)cc3)c3ccc(Cl)cc32)c(OC)c1` (stereo partly drawn) [Example 170, 5-Chloro-3-{4-[(ethylmethylamino)methyl]-2-methoxyphenyl}-3-((2S,4R)-4-hydroxy-2-oxazol-2-yl-pyrrolidin-1-yl)-1-(4-methoxybenzenesulfonyl)-1,3-dihydroindol-2-one] was run?
**A.** < 10 nM

**Q.** With `COc1ccc(CN2CCN(C)CC2)cc1C1(N2CCC[C@H]2c2ncco2)C(=O)N(S(=O)(=O)c2cccs2)c2ccc(Cl)cc21` (stereo partly drawn) [Example 171, 5-Chloro-3-[2-methoxy-5-(4-methylpiperazin-1-ylmethyl)phenyl]-3-((S)-2-oxazol-2-yl-pyrrolidin-1-yl)-1-(thiophene-2-sulfonyl)-1,3-dihydroindol-2-one] as the compound, how does the Ki read?
**A.** 10 to 100 nM

**Q.** `COc1ccc(S(=O)(=O)N2C(=O)C(c3ccc(CN(C)C)cc3OC)(N3C[C@H](O)C[C@H]3c3ncco3)c3cc(C#N)ccc32)cc1` (stereo partly drawn) [Example 172, 5-Cyano-3-(4-dimethylaminomethyl-2-methoxyphenyl)-3-((2S,4R)-4-hydroxy-2-oxazol-2-yl-pyrrolidin-1-yl)-1-(4-methoxybenzenesulfonyl)-1,3-dihydroindol-2-one] was tested. Which Ki did it give?
**A.** 10 to 100 nM

**Q.** With `COc1ccc(S(=O)(=O)N2C(=O)C(c3cc(CN4CCN(C)CC4)ccc3F)(N3CCC[C@H]3c3ncco3)c3cc(Cl)ccc32)cc1` (stereo partly drawn) [Example 173, 5-Chloro-3-[2-fluoro-5-(4-methylpiperazin-1-ylmethyl)phenyl]-1-(4-methoxybenzenesulfonyl)-3-((S)-2-oxazol-2-yl-pyrrolidin-1-yl)-1,3-dihydroindol-2-one] as the compound, how does the Ki read?
**A.** 10 to 100 nM

**Q.** For `COc1ccc(S(=O)(=O)N2C(=O)C(c3cc(CN(C)C)ccc3F)(N3CCC[C@H]3c3ncco3)c3cc(Cl)ccc32)cc1` (stereo partly drawn) [Example 174, 5-Chloro-3-(5-dimethylaminomethyl-2-fluorophenyl)-1-(4-methoxybenzenesulfonyl)-3-((S)-2-oxazol-2-yl-pyrrolidin-1-yl)-1,3-dihydroindol-2-one], which Ki is on record?
**A.** 10 to 100 nM

**Q.** Which Ki does the source give for `COc1ccc(S(=O)(=O)N2C(=O)C(c3cc(CNC(C)C)ccc3F)(N3CCC[C@H]3c3ncco3)c3cc(Cl)ccc32)cc1` (stereo partly drawn) [Example 175, 5-Chloro-3-[2-fluoro-5-(isopropylaminomethyl)phenyl]-1-(4-methoxybenzenesulfonyl)-3-((S)-2-oxazol-2-yl-pyrrolidin-1-yl)-1,3-dihydroindol-2-one] here?
**A.** 10 to 100 nM

**Q.** With `CCNCc1ccc(F)c(C2(N3CCC[C@H]3c3ncco3)C(=O)N(S(=O)(=O)c3ccc(OC)cc3)c3ccc(Cl)cc32)c1` (stereo partly drawn) [Example 176, 5-Chloro-3-(5-ethylaminomethyl-2-fluorophenyl)-1-(4-methoxybenzenesulfonyl)-3-((S)-2-oxazol-2-yl-pyrrolidin-1-yl)-1,3-dihydroindol-2-one] as the compound, how does the Ki read?
**A.** 10 to 100 nM

**Q.** `CCCNCc1ccc(OC)c(C2(N3C[C@H](O)C[C@H]3c3ncco3)C(=O)N(S(=O)(=O)c3ccc(OC)cc3)c3ccc(C#N)cc32)c1` (stereo partly drawn) [Example 177, 5-Cyano-3-((2S,4R)-4-hydroxy-2-oxazol-2-yl-pyrrolidin-1-yl)-1-(4-methoxybenzenesulfonyl)-3-(2-methoxy-5-propylaminomethylphenyl)-1,3-dihydroindol-2-one] was tested. Which Ki did it give?
**A.** < 10 nM

**Q.** `COc1ccc(S(=O)(=O)N2C(=O)C(c3ccc(CN4CCN(C)CC4)cc3OC)(N3C[C@H](O)C[C@H]3c3ncco3)c3cc(C#N)ccc32)cc1` (stereo partly drawn) [Example 178, 5-Cyano-3-((2S,4R)-4-hydroxy-2-oxazol-2-yl-pyrrolidin-1-yl)-1-(4-methoxybenzenesulfonyl)-3-[2-methoxy-4-(4-methylpiperazin-1-ylmethyl)phenyl]-1,3-dihydroindol-2-one] was tested. Which Ki did it give?
**A.** < 10 nM

**Q.** Which Ki does the source give for `CCN1CCN(Cc2ccc(C3(N4C[C@H](O)C[C@H]4c4ncco4)C(=O)N(S(=O)(=O)c4ccc(OC)cc4)c4ccc(C#N)cc43)c(OC)c2)CC1` (stereo partly drawn) [Example 179, 5-Cyano-3-[4-(4-ethylpiperazin-1-ylmethyl)-2-methoxyphenyl]-3-((2S,4R)-4-hydroxy-2-oxazol-2-yl-pyrrolidin-1-yl)-1-(4-methoxybenzenesulfonyl)-1,3-dihydroindol-2-one] here?
**A.** < 10 nM

**Q.** `COc1cc(CN2CCN(C)CC2)ccc1C1(N2C[C@H](O)C[C@H]2c2ncco2)C(=O)N(S(=O)(=O)c2ccc(C#N)cc2)c2ccc(Cl)cc21` (stereo partly drawn) [Example 180, 5-Chloro-3-((2S,4R)-4-hydroxy-2-oxazol-2-yl-pyrrolidin-1-yl)-3-[2-methoxy-4-(4-methylpiperazin-1-ylmethyl)phenyl]-1-(4-cyanobenzenesulfonyl)-1,3-dihydroindol-2-one] was tested. Which Ki did it give?
**A.** < 10 nM
